Mutagenic call data for four compounds are collected here from PubChem BioAssay AID1259407 (Chemical Carcinogenesis Research Information System (CCRIS), 2018).

The subject of this series is CCRIS mutagenicity, Ames/micronucleus/aberration tests. Nature of the series: CCRIS mutagenicity studies.
[1] abbreviates: Test System: AMES SALMONELLA TYPHIMURIUM, Strain/Indicator: TA97, Metabolic Activation: NONE, Method: PREINCUBATION
[2] abbreviates: Test System: AMES SALMONELLA TYPHIMURIUM, Strain/Indicator: TA98, Metabolic Activation: NONE, Method: PREINCUBATION
Setting [3] is: Test System: AMES SALMONELLA TYPHIMURIUM, Strain/Indicator: TA100, Metabolic Activation: NONE, Method: PREINCUBATION

The source made the active and inactive calls. The rule behind the calls is not given here.

On to `CCCCCCCCCCCCCCCCC1CO1` (centres undefined), for which the mutagenic call is “inactive; negative” (Test System: AMES SALMONELLA TYPHIMURIUM, Strain/Indicator: TA97, Metabolic Activation: HAMSTER, LIVER, S-9, AROCLOR 1254 (10%), Method: PREINCUBATION); “inactive; negative” (Test System: AMES SALMONELLA TYPHIMURIUM, Strain/Indicator: TA97, Metabolic Activation: HAMSTER, LIVER, S-9, AROCLOR 1254 (30%), Method: PREINCUBATION); “inactive; negative” under setting [1]; “inactive; negative” (Test System: AMES SALMONELLA TYPHIMURIUM, Strain/Indicator: TA97, Metabolic Activation: RAT, LIVER, S-9, AROCLOR 1254 (10%), Method: PREINCUBATION); “inactive; negative” (Test System: AMES SALMONELLA TYPHIMURIUM, Strain/Indicator: TA97, Metabolic Activation: RAT, LIVER, S-9, AROCLOR 1254 (30%), Method: PREINCUBATION); “inactive; negative” (Test System: AMES SALMONELLA TYPHIMURIUM, Strain/Indicator: TA98, Metabolic Activation: HAMSTER, LIVER, S-9, AROCLOR 1254 (10%), Method: PREINCUBATION). In addition, the mutagenic call (Test System: AMES SALMONELLA TYPHIMURIUM, Strain/Indicator: TA98, Metabolic Activation: HAMSTER, LIVER, S-9, AROCLOR 1254 (30%), Method: PREINCUBATION) was “inactive; negative”; the mutagenic call under setting [2] is “inactive; negative”; the mutagenic call (Test System: AMES SALMONELLA TYPHIMURIUM, Strain/Indicator: TA98, Metabolic Activation: RAT, LIVER, S-9, AROCLOR 1254 (10%), Method: PREINCUBATION) was “inactive; negative”; the mutagenic call (Test System: AMES SALMONELLA TYPHIMURIUM, Strain/Indicator: TA98, Metabolic Activation: RAT, LIVER, S-9, AROCLOR 1254 (30%), Method: PREINCUBATION) is “inactive; negative”; the mutagenic call (Test System: AMES SALMONELLA TYPHIMURIUM, Strain/Indicator: TA100, Metabolic Activation: HAMSTER, LIVER, S-9, AROCLOR 1254 (10%), Method: PREINCUBATION) is “inactive; negative”; the mutagenic call (Test System: AMES SALMONELLA TYPHIMURIUM, Strain/Indicator: TA100, Metabolic Activation: HAMSTER, LIVER, S-9, AROCLOR 1254 (30%), Method: PREINCUBATION) was “inactive; negative”. The mutagenic call was “inactive; negative” under setting [3]; “inactive; negative” (Test System: AMES SALMONELLA TYPHIMURIUM, Strain/Indicator: TA100, Metabolic Activation: RAT, LIVER, S-9, AROCLOR 1254 (10%), Method: PREINCUBATION); “inactive; negative” (Test System: AMES SALMONELLA TYPHIMURIUM, Strain/Indicator: TA100, Metabolic Activation: RAT, LIVER, S-9, AROCLOR 1254 (30%), Method: PREINCUBATION); “inactive; negative” (Test System: AMES SALMONELLA TYPHIMURIUM, Strain/Indicator: TA1535, Metabolic Activation: HAMSTER, LIVER, S-9, AROCLOR 1254 (10%), Method: PREINCUBATION); “inactive; negative” (Test System: AMES SALMONELLA TYPHIMURIUM, Strain/Indicator: TA1535, Metabolic Activation: HAMSTER, LIVER, S-9, AROCLOR 1254 (30%), Method: PREINCUBATION); “inactive; negative” (Test System: AMES SALMONELLA TYPHIMURIUM, Strain/Indicator: TA1535, Metabolic Activation: NONE, Method: PREINCUBATION). For the same compound, the mutagenic call is “inactive; negative” (Test System: AMES SALMONELLA TYPHIMURIUM, Strain/Indicator: TA1535, Metabolic Activation: RAT, LIVER, S-9, AROCLOR 1254 (10%), Method: PREINCUBATION); “inactive; negative” (Test System: AMES SALMONELLA TYPHIMURIUM, Strain/Indicator: TA1535, Metabolic Activation: RAT, LIVER, S-9, AROCLOR 1254 (30%), Method: PREINCUBATION); “inactive; negative” (Test System: AMES SALMONELLA TYPHIMURIUM, Strain/Indicator: TA1537, Metabolic Activation: HAMSTER, LIVER, S-9, AROCLOR 1254 (10%), Method: PREINCUBATION); “inactive; negative” (Test System: AMES SALMONELLA TYPHIMURIUM, Strain/Indicator: TA1537, Metabolic Activation: HAMSTER, LIVER, S-9, AROCLOR 1254 (30%), Method: PREINCUBATION); “inactive; negative” (Test System: AMES SALMONELLA TYPHIMURIUM, Strain/Indicator: TA1537, Metabolic Activation: NONE, Method: PREINCUBATION); “inactive; negative” (Test System: AMES SALMONELLA TYPHIMURIUM, Strain/Indicator: TA1537, Metabolic Activation: RAT, LIVER, S-9, AROCLOR 1254 (10%), Method: PREINCUBATION). Besides, the mutagenic call (Test System: AMES SALMONELLA TYPHIMURIUM, Strain/Indicator: TA1537, Metabolic Activation: RAT, LIVER, S-9, AROCLOR 1254 (30%), Method: PREINCUBATION) is “inactive; negative”.

Turning to `O[C@@H]1c2cccc3ccc4cc5ccccc5c(c4c23)[C@H]1O`, under “Test System: CHINESE HAMSTER V-79, Strain/Indicator: V-79/8-AZAGUANINE, Metabolic Activation: NONE, Method: STANDARD PLATE”, the mutagenic call is “active; positive”.

Take `Cc1[nH]ccc2c1[nH]c1cc(=O)ccc12`: the mutagenic call is “active; positive” under setting [1]; “inactive; negative” (Test System: AMES SALMONELLA TYPHIMURIUM, Strain/Indicator: TA97, Metabolic Activation: RAT, LIVER, S-9, AROCLOR 1254, Method: PREINCUBATION); “inactive; negative” under setting [2]; “inactive; negative” (Test System: AMES SALMONELLA TYPHIMURIUM, Strain/Indicator: TA98, Metabolic Activation: RAT, LIVER, S-9, AROCLOR 1254, Method: PREINCUBATION); “inactive; negative” under setting [3]; “inactive; negative” (Test System: AMES SALMONELLA TYPHIMURIUM, Strain/Indicator: TA100, Metabolic Activation: RAT, LIVER, S-9, AROCLOR 1254, Method: PREINCUBATION). In addition, the mutagenic call by setting is: (Test System: AMES SALMONELLA TYPHIMURIUM, Strain/Indicator: TA102, Metabolic Activation: NONE, Method: PREINCUBATION) “inactive; negative”; (Test System: AMES SALMONELLA TYPHIMURIUM, Strain/Indicator: TA102, Metabolic Activation: RAT, LIVER, S-9, AROCLOR 1254, Method: PREINCUBATION) “inactive; negative”.

Turning to `Oc1ccc2ccc3c4c(cc5ccc1c2c53)[C@@H](O)[C@H](O)C=C4`, the mutagenic call is “active; positive” (Test System: AMES SALMONELLA TYPHIMURIUM, Strain/Indicator: TA97, Metabolic Activation: RAT, LIVER, S-9, AROCLOR 1254, Method: STANDARD PLATE); “active; positive” (Test System: AMES SALMONELLA TYPHIMURIUM, Strain/Indicator: TA98, Metabolic Activation: RAT, LIVER, S-9, AROCLOR 1254, Method: STANDARD PLATE); “active; positive” (Test System: AMES SALMONELLA TYPHIMURIUM, Strain/Indicator: TA100, Metabolic Activation: RAT, LIVER, S-9, AROCLOR 1254, Method: STANDARD PLATE); “active; positive” (Test System: AMES SALMONELLA TYPHIMURIUM, Strain/Indicator: TA1537, Metabolic Activation: RAT, LIVER, S-9, AROCLOR 1254, Method: STANDARD PLATE); “active; positive” (Test System: CHINESE HAMSTER V-79, Strain/Indicator: V-79/6-THIOGUANINE, Metabolic Activation: RAT, LIVER, S-9, AROCLOR 1254).
